Key:
Assay type in all cases: in vivo
[1] = test system: wheat (Triticum aestivum); test: Test A greenhouse herbicide test, pre- and postemergence; conditions: Postemergence
In short: (§1)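 Seeds in loam–sand blend received a preemergence directed soil spray; plants at 2–10 cm, one- to two-leaf stage, received postemergence sprays. Compounds in a non-phytotoxic solvent with surfactant. After about 10 d in a greenhouse, injury rated visually versus untreated controls on a 0–100 scale (100 = complete control).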

kochia (Kochia scoparia) = test: as above
In short: as §1

[2] = test system: ragweed (common ragweed, Ambrosia elatior); test: as above
In short: as §1

[3] = test system: foxtail, giant (giant foxtail, Setaria faberii); test: as above
In short: as §1

[4] = test system: pigweed (Amaranthus retroflexus); test: as above
In short: as §1

corn (Zea mays) = test: as above; conditions: Postemergence
In short: as §1

[5] = test system: ryegrass, Italian (Italian ryegrass, Lolium multiflorum); test: as above
In short: as §1

[6] = test system: oilseed rape (Brassica napus); test: Test C greenhouse herbicide test, pre- and postemergence
In short: (§2)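 Seeds sown in loam–sand blend treated preemergence; plants in peat-based medium sprayed postemergence at 2–18 cm (1- to 4-leaf stage); chemicals in non-phytotoxic solvent with surfactant. Greenhouse 13–15 d, then visual rating versus controls on 0–100 scale (0 no effect, 100 complete control).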

[7] = test system: ragweed (common ragweed, Ambrosia elatior); test: as above
In short: as §2

[8] = test system: johnsongrass (Sorghum halepense); test: as above
In short: as §2

[9] = 125 g ai/ha, 0 to 100 scale where 0 is no effect and 100 is complete control
[10] = 500 g ai/ha, visual rating after approx. 10 d, 0 to 100 scale (0 no effect, 100 complete control)
[11] = Postemergence, 125 g ai/ha, 0 to 100 scale where 0 is no effect and 100 is complete control
[12] = Postemergence, 500 g ai/ha, visual rating after approx. 10 d, 0 to 100 scale (0 no effect, 100 complete control)
[13] = Preemergence, 125 g ai/ha, 0 to 100 scale where 0 is no effect and 100 is complete control
[14] = Preemergence, 500 g ai/ha, 0 to 100 scale where 0 is no effect and 100 is complete control
[15] = Postemergence, 31 g ai/ha, scale 0 to 100 (0 no effect, 100 complete control)
[16] = Postemergence, 125 g ai/ha, scale 0 to 100, 0 is no effect, 100 is complete control
[17] = Postemergence, 250 g ai/ha, scale 0 to 100, 0 no effect, 100 complete control, 13 to 15 d
[18] = Preemergence, 31 g ai/ha, scale 0 to 100, 0 is no effect, 100 is complete control
[19] = Preemergence, 62 g ai/ha, scale 0 to 100, 0 is no effect, 100 is complete control
[20] = Preemergence, 125 g ai/ha, scale 0 to 100, 0 is no effect, 100 is complete control
[21] = Preemergence, 250 g ai/ha, scale 0 to 100, 0 no effect, 100 complete control
[22] = 125 g ai/ha, visual rating after approx. 10 d, 0 to 100 scale (0 no effect, 100 complete control)
[23] = 500 g ai/ha, 0 to 100 scale, 0 is no effect, 100 is complete control
[24] = Postemergence, 125 g ai/ha, visual rating after approx. 10 d, 0 to 100 scale (0 no effect, 100 complete control)
[25] = Postemergence, 500 g ai/ha, 0 to 100 scale, 0 is no effect, 100 is complete control
[26] = Preemergence, 500 g ai/ha, 0 to 100 scale, 0 no effect, 100 complete control
[27] = Postemergence, 31 g ai/ha, 0 to 100 scale (0 no effect, 100 complete control)
[28] = postemergence, 62 g ai/ha, scale 0 to 100, 0 no effect, 100 complete control

CCCC(=O)Oc1c(C)nn(C)c(=O)c1-c1c(CC)sc2ccc(C)cc12 [Compound 107] was tested, and the “Plant response rating, Wheat” value [1, 9] was 30, the “Plant response rating, Wheat” value [1, 10] was 20 and the “Plant response rating, Kochia” value (kochia (Kochia scoparia); [11]) was 80. For the same compound, the “Plant response rating, Kochia” value (kochia (Kochia scoparia); [12]) was 90, the “Kochia plant response rating” value (kochia (Kochia scoparia); [13]) was 20 and the “Plant response rating, Kochia” value (kochia (Kochia scoparia); [14]) was 90. The “Plant response rating, Ragweed” value [2, 11] was 90, the “Plant response rating, Ragweed” value [2, 12] was 90 and the “Ragweed plant response rating” value [2, 13] was 90. For the same compound, the “Plant response rating, Ragweed” value [2, 14] was 100, the “Plant response rating, Foxtail, Giant” value [3, 11] was 70 and the “Plant response rating, Foxtail, Giant” value [3, 12] was 90. The “Foxtail, Giant plant response rating” value [3, 13] was 70, the “Plant response rating, Foxtail, Giant” value [3, 14] was 100 and the “Plant response rating, Pigweed” value [4, 11] was 90. The “Plant response rating, Pigweed” value [4, 12] was 90, the “Pigweed plant response rating” value [4, 13] was 100 and the “Plant response rating, Pigweed” value [4, 14] was 100. The “Plant response rating, Corn” value (corn (Zea mays); [9]) was 0, the “Plant response rating, Corn” value (corn (Zea mays); [10]) was 30 and the “Plant response rating, Ryegrass, Italian” value [5, 11] was 60. The “Plant response rating, Ryegrass, Italian” value [5, 12] was 90, the “Ryegrass, Italian plant response rating” value [5, 13] was 80 and the “Plant response rating, Ryegrass, Italian” value [5, 14] was 100. For the same compound, the “Plant response rating, Oilseed Rape” value [6, 15] was 25, the “Plant response rating, Oilseed Rape” value [6, 16] was 80 and the “Plant response rating, Oilseed Rape” value [6, 17] was 45. For the same compound, the “Plant response rating, Oilseed Rape” value [6, 18] was 0, the “Plant response rating, Oilseed Rape” value [6, 19] was 0 and the “Plant response rating, Oilseed Rape” value [6, 20] was 20. The “Oilseed Rape plant response rating” value [6, 21] was 80, the “Plant response rating, Ragweed” value [7, 15] was 85 and the “Plant response rating, Ragweed” value [7, 16] was 98. For the same compound, the “Plant response rating, Ragweed” value [7, 17] was 98, the “Plant response rating, Ragweed” value [7, 18] was 75 and the “Plant response rating, Ragweed” value [7, 19] was 90. For the same compound, the “Plant response rating, Ragweed” value [7, 20] was 85, the “Ragweed plant response rating” value [7, 21] was 100 and the “Plant response rating, Johnsongrass” value [8, 15] was 0. The “Plant response rating, Johnsongrass” value [8, 16] was 0, the “Plant response rating, Johnsongrass” value [8, 17] was 20 and the “Plant response rating, Johnsongrass” value [8, 18] was 0. For the same compound, the “Plant response rating, Johnsongrass” value [8, 19] was 0, the “Plant response rating, Johnsongrass” value [8, 20] was 10 and the “Johnsongrass plant response rating” value [8, 21] was 20.
In the case of Cc1ccc2ccccc2c1-c1c(O)c(Br)nn(C)c1=O [Compound 23], the “Plant response rating, Wheat” value [1, 22] is reported as 50, the “Wheat plant response rating” value [1, 23] is reported as 80 and the “Plant response rating, Kochia” value (kochia (Kochia scoparia); [24]) is reported as 100. For the same compound, the “Kochia plant response rating” value (kochia (Kochia scoparia); [25]) was 100, the “Kochia plant response rating” value (kochia (Kochia scoparia); [13]) was 80 and the “Plant response rating, Kochia” value (kochia (Kochia scoparia); [26]) was 100. The “Plant response rating, Ragweed” value [2, 24] was 90, the “Ragweed plant response rating” value [2, 25] was 100 and the “Ragweed plant response rating” value [2, 13] was 90. For the same compound, the “Plant response rating, Ragweed” value [2, 26] was 90, the “Plant response rating, Foxtail, Giant” value [3, 24] was 90 and the “Foxtail, Giant plant response rating” value [3, 25] was 90. The “Foxtail, Giant plant response rating” value [3, 13] was 90, the “Plant response rating, Foxtail, Giant” value [3, 26] was 90 and the “Plant response rating, Pigweed” value [4, 24] was 100. The “Pigweed plant response rating” value [4, 25] was 100, the “Pigweed plant response rating” value [4, 13] was 100 and the “Plant response rating, Pigweed” value [4, 26] was 100. The “Plant response rating, Corn” value (corn (Zea mays); [22]) was 40, the “Corn plant response rating” value (corn (Zea mays); [23]) was 50 and the “Plant response rating, Ryegrass, Italian” value [5, 24] was 100. The “Ryegrass, Italian plant response rating” value [5, 25] was 100, the “Ryegrass, Italian plant response rating” value [5, 13] was 80 and the “Plant response rating, Ryegrass, Italian” value [5, 26] was 90. For the same compound, the “Oilseed Rape plant response rating” value [6, 27] was 5, the “Plant response rating, Oilseed Rape” value [6, 16] was 45 and the “Plant response rating, Oilseed Rape” value [6, 17] was 10. The “Plant response rating, Oilseed Rape” value [6, 18] was 50, the “Plant response rating, Oilseed Rape” value [6, 19] was 90 and the “Plant response rating, Oilseed Rape” value [6, 20] was 90. The “Oilseed Rape plant response rating” value [6, 21] was 100, the “Oilseed Rape plant response rating” value [6, 28] was 15 and the “Ragweed plant response rating” value [7, 27] was 85. For the same compound, the “Plant response rating, Ragweed” value [7, 16] was 95, the “Plant response rating, Ragweed” value [7, 17] was 98 and the “Plant response rating, Ragweed” value [7, 18] was 85. The “Plant response rating, Ragweed” value [7, 19] was 85, the “Plant response rating, Ragweed” value [7, 20] was 95 and the “Ragweed plant response rating” value [7, 21] was 90. The “Ragweed plant response rating” value [7, 28] was 90, the “Johnsongrass plant response rating” value [8, 27] was 5 and the “Plant response rating, Johnsongrass” value [8, 16] was 10. The “Plant response rating, Johnsongrass” value [8, 17] was 40, the “Plant response rating, Johnsongrass” value [8, 18] was 5 and the “Plant response rating, Johnsongrass” value [8, 19] was 5. For the same compound, the “Plant response rating, Johnsongrass” value [8, 20] was 35, the “Johnsongrass plant response rating” value [8, 21] was 35 and the “Johnsongrass plant response rating” value [8, 28] was 5.

— US10597388B2, “Pyridazinone herbicides” (FMC CORPORATION, priority 2014, dated 2020)
